For two molecules, EC50 and Kd results are on record in patent US11926631B2, “Method of treating cancer using amanitin derivatives” (Heidelberg Pharma Research GmbH, priority 2017, dated 2024).

*1 amine or outer side, *2 acyl side, *3 side chain or, on linkers, in order; H or OH if unused. Where a SMILES comes first, the peptide text is derived from it. Bridges are numbered along the chain shown (N, C = ends). [ ]: non-standard residue; d: D form. ξ: configuration not given here. Ile(4R-OH,5-OH) = C[C@H]([C@H](N)C(=O)O)[C@@H](O)CO; X2 = Nc1ccc2c(CC(N[*:1])C(=O)[*:2])c([*:3])[nH]c2c1; X1 = O=C([C@@H]1CC(O)CN1[*:1])[*:2]; ξC = NC(CS)C(=O)O

Data set [1] can be described thus: BrdU cell proliferation assay (cytotoxicity) on HEK293 OATP1B3 cells. The class given is cell-based. To be noted: human, 96 h incubation, BrdU assay (FIG. 4). As to the method:
(§1) BrdU Cell Proliferation Assay on HEK293 and HEK293 OATP1B3 cells
HEK293-OATP1B3 cell culture plates were coated with poly-D-lysine.
Coating with Poly-D-Lysine: • 5 mg poly D-lysine in 50 ml sterile water • 50 μl in each well of a 96 well plate • Incubation for 1 h at RT • Washing of wells twice with 200 μl sterile water • Drying for at least for 2 h (RT)
(§2) Black 96-well plates with clear bottom with 2.0×10^3 HEK293 and HEK293 OATP1B3 cells/well and 90 μl growth medium per well including 10% FCS and supplements were prepared. Controls: “Blank” was set up with 100 μl medium without cells, “Background” and “100%” were set up with cells in 100 μl medium.
(§3) Incubation for 24 h at 37° C. and 5% CO2.
(§4) Dilution Scheme of HDP 30.2528 and Alpha-Amanitin:
(§5) The stock solutions were diluted 1:1,000 (1:10 and 1:100 dilution) in medium: • 10 μl Amanitin derivative stock solution (1.0×10^−2 M)+90 μl PBS=100 μl 1.0×10^−3 M • 2 μl dilution+198 μl medium=200 μl 1×10^−5 M
Further Dilutions: • A: 200 μl 1.0×10^−5 M • B: 80 μl growth medium+20 μl solution A (1:5 dilution) • C: 80 μl growth medium+20 μl solution B (1:5 dilution) • D: 80 μl growth medium+20 μl solution C (1:5 dilution) • E: 80 μl growth medium+20 μl solution D (1:5 dilution) • F: 80 μl growth medium+20 μl solution E (1:5 dilution) • G: 80 μl growth medium+20 μl solution F (1:5 dilution) • H: 80 μl growth medium+20 μl solution G (1:5 dilution) […]
A general note: Uptake of a labelled nucleoside into DNA is a usual measure of proliferation.

The nature of data set [2]: BrdU cell proliferation assay (cytotoxicity) on HEK293 cells. The format is cell-based. Conditions: human, 96 h incubation, BrdU assay (FIG. 4). Here is the method:
as §1, §2, §3, §4, §5
Further Dilutions: • A: 200 μl 1.0×10^−5 M • B: 80 μl growth medium+20 μl solution A (1:5 dilution) • C: 80 μl growth medium+20 μl solution B (1:5 dilution) • D: 80 μl growth medium+20 μl solution C (1:5 dilution) • E: 80 μl growth medium+20 μl solution D (1:5 dilution) • F: 80 μl growth medium+20 μl solution E (1:5 dilution) • G: 80 μl growth medium+20 μl solution F (1:5 dilution) • H: 80 μl growth medium+20 μl solution G (1:5 dilution)
10 μl of each solution were added to well triplicates. […]

Data set [3] has as its target DNA-dependent RNA polymerase II (Homo sapiens, UniProt P24928+P30876). Conditions: background statement, no test in the patent; read-out: KD of the complex with RNA-polymerase II; cited from earlier work.

For orientation: EC50 means the midpoint of the concentration-response curve. A high value points to a less potent agent. As to `CC[C@H](C)[C@@H]1NC(=O)CNC(=O)C2Cc3c([nH]c4cc(N)ccc34)SCC(NC(=O)CNC1=O)C(=O)N[C@@H](CC(N)=O)C(=O)N1CC(O)C[C@H]1C(=O)N[C@@H]([C@@H](C)[C@@H](O)CO)C(=O)N2` (stereo partly drawn) [HDP 30.2528, 6′-amino-amaninamide] (cyclo(GIG[ξC]N[X1][Ile(4R-OH,5-OH)][X2]); thioether 4-8), the EC50 at 96 h in data set [1] was determined as 30 nM; in data set [2], 3000 nM.

As a reminder, the Kd is the concentration at which binding is half-saturated. On to amanitin, for which the Kd in data set [3] is 3 nM.
